Reference: paper PMC10331583, “Control of fibrosis with enhanced safety via asymmetric inhibition of prolyl‐tRNA synthetase 1” (EMBO Molecular Medicine, 2023)
Where “and” joins values, the source holds several entries; their conditions need not be identical. Equal entries are not always repeated. Where two headings read alike, the source gives them in different places.

Tests used:
[1] = system: WI‐26 VA4 cells; test: Puromycin incorporation assay; assay type: cell-based, human; details: for activity at 0.01 µM: WI26VA4, 10 nM; for activity at 0.03 µM: WI26VA4, 30 nM; for activity at 3 µM: WI26VA4, 3000 nM; for activity at 10 µM: WI26VA4, 10000 nM
Experimental: After being rinsed with cold PBS twice, the cells were collected and resuspended in 200 μl of the carbonate bicarbonate buffer (Sigma Aldrich, C3041‐50CAP) with protease inhibitor. The cell lysates were obtained by sonication and centrifugation at 20,000 g for 15 min at 4°C. After protein quantification using a Pierce™ BCA Protein Assay Kit (Thermo Fisher Scientific, 23225), 400 ng of the proteins was coated to ELISA plates for 18 h at 4°C. […] The plates were rinsed with the washing buffer for three times after each antibody incubation step. […] The amount of puromycin incorporated in proteins was determined by measuring the absorbance at 450 nm (reference wavelength at 620 nm). Experimental values marked in red with strikethrough text in the Figure Source Data file were excluded from the analysis. These values were determined by considering the values of biological and technical replicates under the same condition, as well as the values at the former and later chemical concentrations.

[2] = system: TNT Quick Coupled Transcription/Translation System (luciferase synthesis); assay type: biochemical
[3] = system: WI‐26 VA4 cells; test: CellTiter‐Glo assay (cytotoxicity); details: Homo sapiens; for activity at 0.0001 µM: WI26VA4, read-out: CellTiter-Glo % of control, 0.1 nM; for activity at 0.0003 µM: WI26VA4, read-out: CellTiter-Glo % of control, 0.3 nM; for activity at 0.001 µM: WI26VA4, read-out: CellTiter-Glo % of control, 1 nM; for activity at 0.003 µM: WI26VA4, read-out: CellTiter-Glo % of control, 3 nM; for activity at 0.01 µM: WI26VA4, read-out: CellTiter-Glo % of control, 10 nM
[4] = Homo sapiens, read-out: Puromycin, % of control, average
[5] = Homo sapiens, read-out: Puromycin, % of control, single replicate
[6] = log(inhibitor) vs. response, variable slope (four parameters), concentration in nM

SMILES: O=C(C[C@H]1NCCC[C@@H]1O)Cn1cnc2ccc(-c3cccc(F)c3)cc21 [DWN11251]
- Puromycin, % of control, single replicate ([1]; 10 nM, 0.01 µM): 101.25 % of control and 94.41 % of control and 100.93 % of control and 102.37 % of control and 93.16 % of control and 112.99 % of control and 111.09 % of control and 112.68 % of control
- Puromycin, % of control, single replicate ([1]; 30 nM, 0.03 µM): 103.89 % of control and 102.07 % of control and 109.54 % of control and 108.35 % of control and 99.59 % of control and 116.49 % of control and 113.07 % of control and 114.50 % of control
- Puromycin, % of control, single replicate ([1]; 100 nM, 0.1 µM): 103.01 % of control and 100.87 % of control and 101.28 % of control and 109.49 % of control and 107.49 % of control and 101.40 % of control and 114.53 % of control and 111.00 % of control and 121.31 % of control
- Puromycin, % of control, single replicate ([1]; 300 nM, 0.3 µM): 88.40 % of control and 85.23 % of control and 87.58 % of control and 94.28 % of control and 93.99 % of control and 87.62 % of control and 94.72 % of control and 94.55 % of control and 109.57 % of control
- Puromycin, % of control, single replicate ([1]; 1000 nM, 1 µM): 106.50 % of control and 101.49 % of control and 107.47 % of control and 104.76 % of control and 102.45 % of control and 95.18 % of control and 122.63 % of control and 109.16 % of control and 107.56 % of control
- Puromycin, % of control, single replicate ([1]; 3000 nM, 3 µM): 61.69 % of control and 62.47 % of control and 62.84 % of control and 57.24 % of control
- Puromycin, % of control, single replicate ([1]; 10000 nM, 10 µM): 19.53 % of control and 20.29 % of control and 21.78 % of control and 23.63 % of control and 20.64 % of control and 21.23 % of control and 21.73 % of control and 22.58 % of control
- Puromycin, % of control, single replicate ([1]; 30000 nM, 30 µM): 0.45 % of control and 0.66 % of control and 0.0147 % of control and 1.69 % of control and 1.62 % of control and 0.33 % of control and 0.81 % of control and 1.20 % of control and -0.12 % of control
- activity at 0.01 µM [1, 4]: 103%
- activity at 0.01 µM [1, 5]: 99.1%
- activity at 0.03 µM [1, 4]: 108%
- activity at 0.03 µM [1, 5]: 108%
- activity at 0.1 µM ([1]; Homo sapiens, WI26VA4, 100 nM, read-out: Puromycin, % of control, average): 108%
- activity at 0.3 µM ([1]; Homo sapiens, WI26VA4, 300 nM, read-out: Puromycin, % of control, average): 92.9%
- activity at 1 µM ([1]; Homo sapiens, WI26VA4, 1000 nM, read-out: Puromycin, % of control, average): 106%
- activity at 3 µM [1, 4]: 60.8%
- activity at 3 µM [1, 5]: 59.6%
- activity at 10 µM [1, 4]: 21.3%
- activity at 10 µM [1, 5]: 20.3%
- activity at 30 µM ([1]; Homo sapiens, WI26VA4, 30000 nM, read-out: Puromycin, % of control, average): 0.74%
- IC50 ([1]; Homo sapiens, WI26VA4, log(inhibitor) vs. response, variable slope (four parameters), read-out: Puromycin, IC50 (best-fit value)): 4.24 µM
- Puromycin, HillSlope (best-fit value) ([1]; log(inhibitor) vs. response, variable slope (four parameters)): -1.784
- Puromycin, LogIC50 (best-fit value) [1, 6]: 3.627
- TNT-luciferase % of control ([2]; 60 nM, Experiment #1, replicates, 0.06 µM): 107.20 % of control and 104.88 % of control and 105.66 % of control
- TNT-luciferase % of control ([2]; 60 nM, Experiment #2, replicates, 0.06 µM): 114.45 % of control and 123.12 % of control and 122.25 % of control
- TNT-luciferase % of control, average ([2]; 60 nM): 112.93 % of control
- TNT-luciferase % of control ([2]; 200 nM, Experiment #1, replicates, 0.2 µM): 108.74 % of control and 107.20 % of control and 111.83 % of control
- TNT-luciferase % of control ([2]; 200 nM, Experiment #2, replicates, 0.2 µM): 104.91 % of control and 109.25 % of control and 124.86 % of control
- TNT-luciferase % of control, average ([2]; 200 nM): 111.13 % of control
- TNT-luciferase % of control ([2]; 600 nM, Experiment #1, replicates, 0.6 µM): 114.14 % of control and 111.05 % of control and 117.22 % of control
- TNT-luciferase % of control ([2]; 600 nM, Experiment #2, replicates, 0.6 µM): 98.84 % of control (2×) and 100.58 % of control
- TNT-luciferase % of control, average ([2]; 600 nM): 106.78 % of control
- TNT-luciferase % of control ([2]; 2000 nM, Experiment #1, replicates, 2 µM): 91.77 % of control (2×) and 97.94 % of control
- TNT-luciferase % of control ([2]; 2000 nM, Experiment #2, replicates, 2 µM): 83.24 % of control and 92.77 % of control and 96.24 % of control
- TNT-luciferase % of control, average ([2]; 2000 nM): 92.29 % of control
- TNT-luciferase % of control ([2]; 6000 nM, Experiment #1, replicates, 6 µM): 60.77 % of control and 59.00 % of control and 60.23 % of control
- TNT-luciferase % of control ([2]; 6000 nM, Experiment #2, replicates, 6 µM): 57.75 % of control and 61.56 % of control and 58.87 % of control
- TNT-luciferase % of control, average ([2]; 6000 nM): 59.70 % of control
- TNT-luciferase % of control ([2]; 20000 nM, Experiment #1, replicates, 20 µM): 9.64 % of control and 9.49 % of control and 10.87 % of control
- TNT-luciferase % of control ([2]; 20000 nM, Experiment #2, replicates, 20 µM): 9.97 % of control and 10.14 % of control and 11.01 % of control
- TNT-luciferase % of control, average ([2]; 20000 nM): 10.19 % of control
- TNT-luciferase % of control ([2]; 60000 nM, Experiment #1, replicates, 60 µM): 0.32 % of control and 0.35 % of control and 0.31 % of control
- TNT-luciferase % of control ([2]; 60000 nM, Experiment #2, replicates, 60 µM): 0.26 % of control and 0.27 % of control and 0.30 % of control
- TNT-luciferase % of control, average ([2]; 60000 nM): 0.30 % of control
- TNT-luciferase % of control ([2]; 200000 nM, Experiment #1, replicates, 200 µM): 0.0123 % of control and 0.00453 % of control and 0.000979 % of control
- TNT-luciferase % of control ([2]; 200000 nM, Experiment #2, replicates, 200 µM): 0.0176 % of control and 0.0228 % of control and 0.0243 % of control
- TNT-luciferase % of control, average ([2]; 200000 nM): 0.0137 % of control
- TNT-luciferase LogIC50 (best-fit value) [2, 6]: 3.802
- IC50 ([2]; log(inhibitor) vs. response, variable slope (four parameters), unit from head concentration (nM), read-out: TNT-luciferase IC50 (best-fit value)): 6340 nM
- activity at 0.0001 µM ([3]; Experiment #1, replicates): 92.7%
- activity at 0.0001 µM ([3]; Experiment #2, replicates): 120%
- activity at 0.0003 µM ([3]; Experiment #1, replicates): 111%
- activity at 0.0003 µM ([3]; Experiment #2, replicates): 121%
- activity at 0.001 µM ([3]; Experiment #1, replicates): 105%
- activity at 0.001 µM ([3]; Experiment #2, replicates): 107%
- activity at 0.003 µM ([3]; Experiment #1, replicates): 122%
- activity at 0.003 µM ([3]; Experiment #2, replicates): 111%
- activity at 0.01 µM ([3]; Experiment #1, replicates): 100%
- activity at 0.01 µM ([3]; Experiment #2, replicates): 121%
